These results are taken from patent US8557860B2, “Cyclopentane heptan(ENE)OIC acid, 2-heteroarylalkenyl derivatives as therapeutic agents” (Allergan, Inc., priority 2004, dated 2013).

For orientation: EC50 means the concentration that produces a half-maximal response.

Assay type in all cases: cell-based
Assay [1] deals with T1, hFP (Homo sapiens, UniProt P43088).
T1 construct: expressed in transfected cells; host or cells: HEK-293(EBNA)
Briefly: FLIPR calcium signal study, hFP. To be noted: HEK-293(EBNA) cells, recombinant human receptor, read-out: FUNCTIONAL DATA (EC50 nm) HFP. Here is the method: (§1) HEK-293(EBNA) cells, stably expressing one type or subtype of recombinant human prostaglandin receptors (prostaglandin receptors expressed: hDP/Gqs5; hEP1; hEP2/Gqs5; hEP3A/Gqi5; hEP4/Gqs5; hFP; hIP; hTP), were cultured in 100 mm culture dishes in high-glucose DMEM medium containing 10% fetal bovine serum, 2 mM 1-glutamine, 250 μg/ml geneticin (G418) and 200 μg/ml hygromycin B as selection markers, and 100 units/ml penicillin G, 100 μg/ml streptomycin and 0.25 μg/ml amphotericin B.
(§2) Cells were seeded at a density of 5×10^4 cells per well in Biocoat® Poly-D-lysine-coated black-wall, clear-bottom 96-well plates (Becton-Dickinson) and allowed to attach overnight in an incubator at 37° C. Cells were then washed two times with HBSS-HEPES buffer (Hanks Balanced Salt Solution without bicarbonate and phenol red, 20 mM HEPES, pH 7.4) using a Denley Cellwash plate washer (Labsystems). […]
(§3) Cells were excited with an Argon laser at 488 nm, and emission was measured through a 510-570 nm bandwidth emission filter (FLIPR™, Molecular Devices, Sunnyvale, Calif.). […] The peak increase in fluorescence intensity was recorded for each well. […] The peak fluorescence change in each drug-containing well was then expressed relative to the controls. […]

Assay [2] has as its target T2, hEP3A/Gqi5 (Homo sapiens, UniProt P43115).
T2 construct: expressed in transfected cells; host or cells: HEK-293(EBNA)
T2 sequence (P43115 1-390): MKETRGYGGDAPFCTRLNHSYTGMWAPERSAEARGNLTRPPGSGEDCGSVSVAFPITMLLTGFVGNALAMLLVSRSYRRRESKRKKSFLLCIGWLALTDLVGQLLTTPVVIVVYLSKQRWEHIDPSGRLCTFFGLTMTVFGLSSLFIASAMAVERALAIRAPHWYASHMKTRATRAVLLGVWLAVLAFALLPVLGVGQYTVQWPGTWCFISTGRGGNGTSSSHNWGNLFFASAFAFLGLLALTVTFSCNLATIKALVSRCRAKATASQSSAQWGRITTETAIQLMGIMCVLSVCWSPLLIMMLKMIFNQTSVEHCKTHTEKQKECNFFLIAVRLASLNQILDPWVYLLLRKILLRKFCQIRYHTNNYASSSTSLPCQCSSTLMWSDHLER
Kind of assay: FLIPR calcium signal study, hEP3A/Gqi5. The settings on record: HEK-293(EBNA) cells, recombinant human receptor, read-out: FUNCTIONAL DATA (EC50 nm) HEP3A. Here is the method:
as §1
(§4) Cells were seeded at a density of 5×10^4 cells per well in Biocoat® Poly-D-lysine-coated black-wall, clear-bottom 96-well plates (Becton-Dickinson) and allowed to attach overnight in an incubator at 37° C. Cells were then washed two times with HBSS-HEPES buffer (Hanks Balanced Salt Solution without bicarbonate and phenol red, 20 mM HEPES, pH 7.4) using a Denley Cellwash plate washer (Labsystems). After 45 minutes of dye-loading in the dark, using the calcium-sensitive dye Fluo-4 AM at a final concentration of 2 μM, plates were washed four times with HBSS-HEPES buffer to remove excess dye leaving 100 μl in each well. Plates were re-equilibrated to 37° C. for a few minutes.
(§5) Cells were excited with an Argon laser at 488 nm, and emission was measured through a 510-570 nm bandwidth emission filter (FLIPR™, Molecular Devices, Sunnyvale, Calif.). Drug solution was added in a 50 μl volume to each well to give the desired final concentration. The peak increase in fluorescence intensity was recorded for each well. On each plate, four wells each served as negative (HBSS-HEPES buffer) and positive controls (standard agonists: BW245C (hDP); PGE2 (hEP1; hEP2/Gqs5; hEP3A/Gqi5; hEP4/Gqs5); PGF2α (hFP); carbacyclin (hIP); U-46619 (hTP), depending on receptor). The peak fluorescence change in each drug-containing well was then expressed relative to the controls.
(§6) Compounds were tested in a high-throughput (HTS) or concentration-response (CoRe) format. […]

Assay [3] concerns the target T3, hTP (Homo sapiens, UniProt P21731).
T3 construct: expressed in transfected cells; host or cells: HEK-293(EBNA)
T3 sequence (P21731 1-343): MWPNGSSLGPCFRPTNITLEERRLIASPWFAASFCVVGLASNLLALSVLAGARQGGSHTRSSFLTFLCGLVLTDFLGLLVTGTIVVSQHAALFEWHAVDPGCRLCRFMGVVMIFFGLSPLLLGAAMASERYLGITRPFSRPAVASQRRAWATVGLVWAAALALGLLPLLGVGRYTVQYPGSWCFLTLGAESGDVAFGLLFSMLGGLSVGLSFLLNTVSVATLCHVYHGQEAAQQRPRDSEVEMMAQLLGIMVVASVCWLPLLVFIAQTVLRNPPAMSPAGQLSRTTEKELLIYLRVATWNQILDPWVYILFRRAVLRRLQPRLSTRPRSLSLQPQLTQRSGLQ
Briefly: FLIPR calcium signal study, hTP. The settings on record: HEK-293(EBNA) cells, recombinant human receptor, read-out: FUNCTIONAL DATA (EC50 nm) HTP. Here is the method: as §1, §4, §5, §6

In assay [4] the target is T4, hEP4/Gqs5 (Homo sapiens, UniProt P35408).
T4 construct: expressed in transfected cells; host or cells: HEK-293(EBNA)
Briefly: FLIPR calcium signal study, hEP4/Gqs5. To be noted: HEK-293(EBNA) cells, recombinant human receptor, read-out: FUNCTIONAL DATA (EC50 nm) HEP4. Here is the method: as §1, §2, §3

The target of assay [5] is T5, hEP1 (Homo sapiens, UniProt P34995).
T5 construct: expressed in transfected cells; host or cells: HEK-293(EBNA)
T5 sequence (P34995 1-402): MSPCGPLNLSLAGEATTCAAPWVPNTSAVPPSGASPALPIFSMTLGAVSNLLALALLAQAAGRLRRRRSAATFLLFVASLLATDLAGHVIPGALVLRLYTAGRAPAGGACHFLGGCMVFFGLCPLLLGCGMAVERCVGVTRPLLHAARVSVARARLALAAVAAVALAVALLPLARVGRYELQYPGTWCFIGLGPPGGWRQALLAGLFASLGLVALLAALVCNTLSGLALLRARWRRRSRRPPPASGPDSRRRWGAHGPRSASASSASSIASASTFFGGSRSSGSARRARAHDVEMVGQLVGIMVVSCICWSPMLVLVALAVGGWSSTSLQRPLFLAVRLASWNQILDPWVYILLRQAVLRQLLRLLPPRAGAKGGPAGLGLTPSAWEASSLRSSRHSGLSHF
Kind of assay: FLIPR calcium signal study, hEP1. The settings on record: HEK-293(EBNA) cells, recombinant human receptor, read-out: FUNCTIONAL DATA (EC50 nm) HEP1. Here is the method: as §1, §2, §3

T1 sequence (P43088 whole entry): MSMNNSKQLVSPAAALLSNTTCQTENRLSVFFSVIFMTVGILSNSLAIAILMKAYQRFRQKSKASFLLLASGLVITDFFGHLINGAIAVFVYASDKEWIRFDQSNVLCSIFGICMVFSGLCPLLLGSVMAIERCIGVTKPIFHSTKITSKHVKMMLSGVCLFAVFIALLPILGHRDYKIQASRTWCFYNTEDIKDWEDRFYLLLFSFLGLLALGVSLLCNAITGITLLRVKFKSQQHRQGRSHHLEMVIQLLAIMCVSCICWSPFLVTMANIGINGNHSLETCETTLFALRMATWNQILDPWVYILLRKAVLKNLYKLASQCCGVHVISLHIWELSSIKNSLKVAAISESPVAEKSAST
T4 sequence (P35408 whole entry): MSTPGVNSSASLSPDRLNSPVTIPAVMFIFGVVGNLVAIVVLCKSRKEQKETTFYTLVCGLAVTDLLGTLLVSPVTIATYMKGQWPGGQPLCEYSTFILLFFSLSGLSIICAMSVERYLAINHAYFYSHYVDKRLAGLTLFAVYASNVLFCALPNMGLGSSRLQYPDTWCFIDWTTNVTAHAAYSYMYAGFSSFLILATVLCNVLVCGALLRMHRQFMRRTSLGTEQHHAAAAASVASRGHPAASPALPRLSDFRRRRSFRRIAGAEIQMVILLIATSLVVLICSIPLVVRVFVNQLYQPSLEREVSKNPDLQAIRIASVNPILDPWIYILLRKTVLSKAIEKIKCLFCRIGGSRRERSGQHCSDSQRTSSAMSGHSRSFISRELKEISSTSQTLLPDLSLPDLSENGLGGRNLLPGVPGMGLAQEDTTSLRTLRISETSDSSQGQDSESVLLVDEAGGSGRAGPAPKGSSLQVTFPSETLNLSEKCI

As to `Cc1sc(CC[C@H](O)/C=C/[C@H]2CCC(O)[C@@H]2C/C=C\CCCC(=O)O)cc1Br` (single isomer, unassigned) [drawing 40], the half-maximal effective concentration (EC50) in assay [1] is > 100000 nM; in assay [2] it was > 100000 nM; in assay [3], > 100000 nM; in assay [4] it was 832 nM.
Consider `COC(=O)CCC/C=C\C[C@H]1C(O)CC[C@@H]1/C=C/[C@@H](O)CCc1cc(Br)c(C)s1` (single isomer, unassigned), for which the EC50 was 2070 nM in assay [1], > 100000 nM in assay [2] and 1870 nM in assay [3].
Consider `Cc1sc(CC[C@H](O)/C=C/[C@H]2CCC(O)[C@@H]2C/C=C\CCCC(=O)O)cc1Br` (single isomer, unassigned) [drawing 39], for which the EC50 in assay [5] was > 100000 nM; in assay [2] it was 793 nM; in assay [3] it was 96 nM; in assay [4] it was > 100000 nM.
